Data set [1] has as its system MCF7. The experiment in a line: Anticancer activity against human MCF7 cells assessed as inhibition of cell growth after 24 hrs by SRB assay. Format: functional, cell-based. The settings on record: MCF7, 24 h.
Data set [2] can be described thus: Selectivity index, ratio of IC50 for chloroquine-resistant Plasmodium falciparum W2 to IC50 for human MCF7 cells.
In a further data set the test system is WI-38. The experiment in a line: Selectivity index, ratio of IC50 for human WI38 cells to IC50 for human TK10 cells. Format: functional.
Data set [3] in a line: Anticancer activity against human UACC62 cells assessed as inhibition of cell growth after 24 hrs by SRB assay. Format: functional, cell-based. The note with it: UACC-62, 24 h.
A short description of data set [4]: Cytotoxicity against human WI38 cells assessed as inhibition of proliferation after 24 hrs by SRB assay. The settings on record: WI-38, 24 h. Format: cell-based.
Data set [5] has as its system Plasmodium falciparum. The data set is described as follows: Antimalarial activity against chloroquine-resistant Plasmodium falciparum W2 assessed as inhibition of parasite proliferation after 96 hrs by SYBR Green I-based fluorescence method. Format: functional, organism-based. The settings on record: W2, 96 h.
The nature of data set [6]: Selectivity index, ratio of IC50 for chloroquine-resistant Plasmodium falciparum W2 to IC50 for human TK10 cells. On the set-up: species or system TK-10.
A further data set concerns UACC-62. The data set is described as follows: Selectivity index, ratio of IC50 for human WI38 cells to IC50 for human UACC62 cells. It counts as functional.
A further data set concerns TK-10. The data set is described as follows: Anticancer activity against human TK10 cells assessed as inhibition of cell growth after 24 hrs by SRB assay. Format: functional, cell-based. The note with it: TK-10, 24 h. (Sulforhodamine B stains cellular protein and so reports cell mass.)
Data set [7] can be described thus: Resistance index, ratio of IC50 for chloroquine-resistant Plasmodium falciparum W2 to IC50 for chloroquine-sensitive Plasmodium falciparum 3D7. It counts as functional.
Data set [8] deals with MCF7. The data set is described as follows: Selectivity index, ratio of IC50 for human WI38 cells to IC50 for human MCF7 cells. It counts as functional.
A short description of data set [9]: Selectivity index, ratio of IC50 for human WI38 cells to IC50 for chloroquine-sensitive Plasmodium falciparum 3D7. It counts as toxicity, cell-based, WI-38. The note with it: read-out: Ratio IC50.
Data set [10] in a line: Selectivity index, ratio of IC50 for chloroquine-resistant Plasmodium falciparum W2 to IC50 for human UACC62 cells. Also on record: species or system UACC-62.
Data set [11] concerns Plasmodium falciparum. The experiment in a line: Antimalarial activity against chloroquine-sensitive Plasmodium falciparum 3D7 assessed as inhibition of parasite proliferation after 96 hrs by SYBR Green I-based fluorescence method. Format: functional, organism-based. The note with it: 3D7, 96 h.

Each structure is given as a SMILES string.

The text below walks through data of ChEMBL document CHEMBL3396954, “Synthesis and in vitro biological evaluation of dihydroartemisinyl-chalcone esters” (Eur J Med Chem, 2015).

For orientation: IC50 means the concentration needed to halve the response being measured.

As to `COc1ccc(C(=O)/C=C/c2ccc(C(=O)O)cc2)c(OC)c1`, the IC50 in the data set on MCF7 [1] is 28.1 µM; in data set [3], 6.75 µM; in data set [4] it was 48.6 µM; in the data set with Plasmodium falciparum [5], 0.0148 µM; in the data set with TK-10 it was 59.6 µM; with Plasmodium falciparum [11], 0.0148 µM. Further, the “Ratio IC50” value in data set [2] came to 1.9; in the data set with WI-38, 0.8; in data set [6] it was 4; with UACC-62, 7.2; in data set [7], 1; in the data set with MCF7 [8] it was 1.7. Besides, the “Ratio IC50” value in [10] is 0.5. Besides, the selectivity ratio in [9] came to 3.3.

`CC[C@H]1CN2CCc3cc(OC)c(OC)cc3[C@@H]2C[C@@H]1C[C@H]1NCCc2cc(OC)c(OC)cc21` [EMETINE]: the IC50 in [4] turned out to be 0.05 µM.

As to `O=C(O)c1ccc(/C=C/C(=O)c2ccccc2)cc1`, the concentration for half-maximal inhibition (IC50) with MCF7 [1] is 11.9 µM; in [3] it was 13.9 µM; in data set [4], above 100 µM; in the data set on Plasmodium falciparum [5], 0.0308 µM; in the data set on TK-10, 29.8 µM; with Plasmodium falciparum [11] it was 0.0295 µM. Further, the “Ratio IC50” value is above 0.4 in [2]; above 3 with WI-38; above 1 in [6]; above 7 with UACC-62; 1 in data set [7]; above 8 in the data set on MCF7 [8]. For the same compound, the “Ratio IC50” value in data set [10] was above 0.5. Further, the selectivity ratio in [9] is above 3.4.

In the case of `Cc1ccc(C(=O)/C=C/c2ccc(C(=O)O[C@@H]3O[C@@H]4O[C@]5(C)CC[C@H]6[C@H](C)CC[C@@H]([C@H]3C)[C@@]46OO5)cc2)o1`, the IC50 is 3.42 µM in the data set on MCF7 [1]; 3.29 µM in [3]; 72.2 µM in data set [4]; 0.00147 µM in the data set on Plasmodium falciparum [5]; 3.6 µM in the data set with TK-10; 0.00198 µM in the data set on Plasmodium falciparum [11]. In addition, the “Ratio IC50” value in [2] stood at 2325.9; with WI-38 it was 20; in data set [6], 2451.7; in the data set with UACC-62, 21.9; in [7] it was 0.7; with MCF7 [8], 21.1. Besides, in [10], the “Ratio IC50” value came to 2240.1. Moreover, the selectivity ratio in [9] is 36500.

With `O=C(O)c1ccc(/C=C/C(=O)c2ccc(Cl)c(Cl)c2Cl)cc1`, the IC50 in the data set with MCF7 [1] turned out to be 8.73 µM; in [3], 19.7 µM; in data set [4], 20.4 µM; in the data set on Plasmodium falciparum [5] it was 0.0622 µM; in the data set with TK-10, 23.6 µM; with Plasmodium falciparum [11], 0.041 µM. Further, the “Ratio IC50” value in [2] is 0.1; in the data set with WI-38, 0.9; in data set [6], 0.4; in the data set with UACC-62, 1; in [7] it was 1.5; with MCF7 [8], 2.3. In addition, the “Ratio IC50” value in data set [10] was 0.3. For the same compound, the selectivity ratio in [9] came out at 0.5.

On to `C[C@@H]1CC[C@H]2[C@@H](C)C(OC(=O)c3ccc(/C=C/C(=O)c4ccccc4)cc3)O[C@@H]3O[C@]4(C)CC[C@@H]1[C@]32OO4` (some centres undefined), for which the concentration for half-maximal inhibition (IC50) in the data set on MCF7 [1] was 3.59 µM; in [3], 5.35 µM; in [4], above 100 µM; with Plasmodium falciparum [5] it was 0.0106 µM; in the data set on TK-10, 8.32 µM; in the data set on Plasmodium falciparum [11], 0.00973 µM. Further, the “Ratio IC50” value in [2] is above 339; in the data set on WI-38 it was above 12; in [6], above 786; in the data set with UACC-62, above 19; in data set [7], 1.1; in the data set with MCF7 [8], above 28. For the same compound, the “Ratio IC50” value in [10] was above 505. Besides, the selectivity ratio in [9] is above 10300.

As to `Cc1ccc(C(=O)/C=C/c2ccc(C(=O)O)cc2)o1`, the IC50 in the data set on MCF7 [1] stood at 19.7 µM; in [3], 58 µM; in data set [4] it was 32 µM; in the data set on Plasmodium falciparum [5], 0.0173 µM; in the data set with TK-10 it was 90 µM; with Plasmodium falciparum [11] it was 0.0183 µM. The “Ratio IC50” value in [2] is 1.1; in the data set on WI-38 it was 0.4; in data set [6], 5.2; in the data set with UACC-62 it was 0.6; in [7] it was 0.9; in the data set on MCF7 [8], 1.6. For the same compound, the “Ratio IC50” value in data set [10] came out at 3.3. The selectivity ratio in data set [9] is 1.7.

Take `COc1ccc(C(=O)/C=C/c2ccc(C(=O)OC3O[C@@H]4O[C@]5(C)CC[C@H]6[C@H](C)CC[C@@H]([C@H]3C)[C@@]46OO5)cc2)c(OC)c1` (some centres undefined): the IC50 was 1.02 µM with MCF7 [1]; 4.33 µM in data set [3]; above 100 µM in data set [4]; 0.00204 µM in the data set on Plasmodium falciparum [5]; 22 µM with TK-10; 0.00302 µM with Plasmodium falciparum [11]. Also, the “Ratio IC50” value in [2] was above 500; with WI-38, above 5; in [6], above 10799; in the data set with UACC-62, above 23; in [7] it was 0.7; in the data set on MCF7 [8], above 100. Besides, in data set [10], the “Ratio IC50” value is above 2123. Further, the selectivity ratio in [9] is above 33100.

Regarding `CCN(CC)CCCC(C)Nc1ccnc2cc(Cl)ccc12` (centres undefined) [CHLOROQUINE], in data set [4], the IC50 turned out to be 3.63 µM.

For `C[C@H]1[C@@H](OC(=O)c2ccc(/C=C/C(=O)c3ccc(Cl)c(Cl)c3Cl)cc2)O[C@@H]2O[C@]3(C)CC[C@H]4[C@H](C)CC[C@@H]1[C@@]24OO3`, the IC50 in the data set with MCF7 [1] was found to be 14.9 µM; in data set [3], 28.5 µM; in data set [4] it was 61.9 µM; in the data set with Plasmodium falciparum [5] it was 0.00584 µM; with TK-10, 53.7 µM; in the data set with Plasmodium falciparum [11], 0.0107 µM. Further, the “Ratio IC50” value in data set [2] was found to be 2549.7; in the data set with WI-38 it was 1.2; in data set [6], 9198.6; in the data set on UACC-62, 2.2; in data set [7], 0.5; in the data set with MCF7 [8] it was 4.2. In addition, the “Ratio IC50” value in [10] was 4873.3. Moreover, the selectivity ratio in data set [9] worked out at 5800.

As to `C[C@H]1[C@@H](O)O[C@@H]2O[C@@]3(C)CC[C@H]4[C@H](C)CC[C@@H]1[C@@]24OO3` [ARTENIMOL], the concentration for half-maximal inhibition (IC50) with Plasmodium falciparum [5] was determined as 0.00131 µM; in the data set with Plasmodium falciparum [11], 0.00145 µM. The Ratio IC50 in [7] is 0.9.

Regarding `COc1ccc(C(=O)/C=C/c2ccc(C(=O)O)cc2)cc1OC`, the IC50 was determined as 8.88 µM in the data set on MCF7 [1]; 7.87 µM in data set [3]; 67.4 µM in [4]; 0.0108 µM in the data set with Plasmodium falciparum [5]; 18.9 µM in the data set on TK-10; 0.0108 µM in the data set with Plasmodium falciparum [11]. The “Ratio IC50” value in data set [2] was determined as 0.8; in the data set on WI-38 it was 3.6; in data set [6] it was 1.7; in the data set on UACC-62, 8.6; in data set [7], 1; in the data set on MCF7 [8], 7.6. For the same compound, the “Ratio IC50” value in [10] was determined as 0.7. For the same compound, the selectivity ratio in data set [9] worked out at 6.2.

In the case of `COc1ccc(C(=O)/C=C/c2ccc(C(=O)OC3O[C@@H]4O[C@]5(C)CC[C@H]6[C@H](C)CC[C@@H]([C@H]3C)[C@@]46OO5)cc2)cc1[N+](=O)[O-]` (some centres undefined), the IC50 was 2.9 µM in the data set on MCF7 [1]; 7.58 µM in data set [3]; above 100 µM in data set [4]; 0.00566 µM in the data set on Plasmodium falciparum [5]; 17 µM in the data set with TK-10; 0.00587 µM in the data set on Plasmodium falciparum [11]. Further, the “Ratio IC50” value in [2] is above 512; in the data set on WI-38, above 6; in [6], above 3010; in the data set on UACC-62, above 13; in data set [7], 1; with MCF7 [8], above 34. Besides, the “Ratio IC50” value in data set [10] is on record as above 1340. In data set [9], the selectivity ratio was above 17000.

On to `C[C@H]1[C@H](OC(=O)CCC(=O)O)O[C@@H]2O[C@@]3(C)CC[C@H]4[C@H](C)CC[C@@H]1[C@@]24OO3` [ARTESUNATE], for which the figures for the IC50 with Plasmodium falciparum [5] and in the data set on Plasmodium falciparum [11] were 0.00571 µM and 0.004 µM, respectively.

With `C=C1C(=O)O[C@@H]2C3O[C@]3(C)CC/C=C(\C)CC[C@@H]12` (some centres undefined), the IC50 in the data set on MCF7 [1] was 2.4 µM; in data set [3], 9.71 µM; in the data set with TK-10, 3.71 µM.

Turning to `COc1ccc(C(=O)/C=C/c2ccc(C(=O)O)cc2)cc1[N+](=O)[O-]`, the IC50 stood at 9.52 µM in the data set with MCF7 [1]; 13.4 µM in data set [3]; 29 µM in data set [4]; 0.0312 µM in the data set on Plasmodium falciparum [5]; 21.1 µM with TK-10; 0.0407 µM in the data set with Plasmodium falciparum [11]. Also, the “Ratio IC50” value came to 0.3 in data set [2]; 1.4 with WI-38; 0.7 in data set [6]; 2.2 in the data set on UACC-62; 0.8 in data set [7]; 3 with MCF7 [8]. For the same compound, the “Ratio IC50” value in data set [10] was determined as 0.4. The selectivity ratio in data set [9] was 0.7.
